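Step 1: Grow cells in 96-well plates. Step 2: Expose to compound for 48 hours at 5 concentrations. Step 3: Interpolate endpoints linearly; if unreached, use highest concentration. TGI denotes the concentration required for complete inhibition of growth.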
Experiments:
Experiment in all cases: inhibition of tumour cell growth, NCI panel, 48 h
[1] = system: DLD-1 colon
[2] = system: DMS 114 small cell lung
[3] = system: DMS 273 small cell lung
[4] = system: HOP-18 NSCLC
[5] = system: LXFL 529 NSCLC
[6] = system: M19-MEL melanoma
[7] = system: SNB-78 CNS
[8] = system: RXF-631 renal
[9] = system: XF 498 CNS

SMILES | TGI [1] | TGI [2] | TGI [3] | TGI [4] | TGI [5] | TGI [6] | TGI [7] | TGI [8] | TGI [9]
N#CCC(=O)N/N=C(\C(=O)Nc1ccc(Cl)c(Cl)c1)C1CN(c2ccccc2)N=C1N (configuration not stated) | > 100 µM | > 100 µM | > 100 µM | > 100 µM | > 100 µM | > 100 µM | > 100 µM | – | –
COc1ccccc1/C=C1\CCC(CCN2CCOCC2)C1=O (configuration not stated) | > 100 µM | > 100 µM | > 100 µM | > 100 µM | > 100 µM | > 100 µM | > 100 µM | > 100 µM | > 100 µM
O=C1C2CN(Cc3ccccc3)CC1CN(CC1CC1)C2 | – | > 100 µM | > 100 µM | > 100 µM | > 100 µM | > 100 µM | – | – | > 100 µM
COc1c(C)cc2c(c1O)C1NC(C2)[C@H](O)N2C3COC(=O)[C@@]4(CS[C@@H](c5c(OC(C)=O)c(C)c6c(c53)OCO6)C12)NCCC1=C4NC2C=CC=CC12 (some centres not stated) | 0.0498 µM | < 0.01 µM | < 0.01 µM | – | 0.0117 µM | < 0.01 µM | – | 0.167 µM | –
CCOc1ccc(NC(=O)C2=C(C)NC(C)=C(C(=O)Nc3ccc(OCC)cc3)C2c2ccccc2)cc1 | > 100 µM | > 100 µM | > 100 µM | – | > 100 µM | > 100 µM | > 100 µM | > 100 µM | > 100 µM
Cc1nc2ccccc2c(=O)n1NC(=S)Nc1ccc(Cl)cc1[N+](=O)[O-] | – | > 100 µM | – | – | > 100 µM | > 100 µM | – | – | –
Cc1ccc(C(=O)OCC(C)C)cc1N=NN(C)C | > 100 µM | – | > 100 µM | – | > 100 µM | > 100 µM | > 100 µM | – | –
NCCN1C(=O)C2C3c4ccccc4C(c4ccccc43)C2C1=O (configuration not stated) | > 100 µM | > 100 µM | > 100 µM | > 100 µM | > 100 µM | > 100 µM | > 100 µM | – | –
COc1ccc(C=C(c2ccc(OCc3ccccc3)cc2)c2ccc(OCc3ccccc3)cc2)cc1 | > 100 µM | > 100 µM | > 100 µM | > 100 µM | > 100 µM | > 100 µM | > 100 µM | > 100 µM | > 100 µM
CC(C)N1CN(C(C(=O)N[C@@H]2C(=O)N3C2SC(C)(C)C3C(=O)O)c2ccc(O)cc2)CSC1=S (some centres not stated) | > 100 µM | > 100 µM | > 100 µM | > 100 µM | > 100 µM | > 100 µM | > 100 µM | – | > 100 µM
Brc1cc2c(cc1C1SCCS1)OCO2 | > 100 µM | > 100 µM | > 100 µM | > 100 µM | > 100 µM | – | > 100 µM | > 100 µM | –
COc1cc(/C=C\c2cccnc2)cc(OC)c1OC | > 100 µM | > 100 µM | > 100 µM | > 100 µM | > 100 µM | > 100 µM | > 100 µM | – | > 100 µM
CCCCCCCC(=O)OCC1OC(OC)C(NC(=O)N(CCCl)N=O)C(O)C1O (configuration not stated) | 28.6 µM | 29.6 µM | 15.9 µM | 72.3 µM | 42 µM | 49.2 µM | 79.6 µM | 19 µM | 30.6 µM
O=C(COC(=O)c1cccc2c(=O)c3ccccc3[nH]c12)Nc1ccccc1 | > 100 µM | 59.3 µM | > 100 µM | > 100 µM | > 100 µM | > 100 µM | – | 99 µM | 74.4 µM
CCOC(=O)c1ccc(NC(=O)SCCC(=O)O)cc1 | > 100 µM | > 100 µM | > 100 µM | – | > 100 µM | – | > 100 µM | – | –
Clc1cc2n[se]nc2cc1Cl | > 100 µM | > 100 µM | > 100 µM | > 100 µM | > 100 µM | > 100 µM | > 100 µM | > 100 µM | > 100 µM
CN1Cc2cc3c(cc2-c2ccccc21)OCO3 | > 100 µM | – | > 100 µM | > 100 µM | > 100 µM | > 100 µM | > 100 µM | – | > 100 µM
NC(N)=NS(=O)(=O)c1ccc(Nc2c3ccccc3nc3c(C(=O)Nc4ccc(S(N)(=O)=O)cc4)ccc(Cl)c23)cc1 | > 100 µM | > 100 µM | > 100 µM | > 100 µM | > 100 µM | > 100 µM | > 100 µM | > 100 µM | > 100 µM
CN(Cc1ccccc1)C(=NC#N)N(C)Cc1ccccc1 | > 100 µM | – | > 100 µM | – | > 100 µM | > 100 µM | > 100 µM | – | –
Cc1nn(C)cc1P(=S)(c1ccccc1)c1ccccc1 | > 100 µM | > 100 µM | > 100 µM | > 100 µM | > 100 µM | > 100 µM | > 100 µM | – | > 100 µM
Cc1nn(-c2nc3ccccc3s2)c2c1C(=O)c1ccccc1-2 | > 100 µM | > 100 µM | > 100 µM | > 100 µM | > 100 µM | > 100 µM | > 100 µM | – | –
COc1ccc2[nH]cc(CCNC(=O)[C@](O)(Cc3cn(C)c4ccccc34)[C@@]3(O)OCC(O)C3O)c2c1 (some centres not stated) | > 100 µM | > 100 µM | > 100 µM | > 100 µM | > 100 µM | > 100 µM | – | > 100 µM | > 100 µM
O=c1[nH]cnc2c1CCCN2 | > 100 µM | > 100 µM | – | > 100 µM | > 100 µM | > 100 µM | > 100 µM | – | –
O=[N+]([O-])c1c(C=Nc2ccccc2)oc(-c2ccc3c(c2)OCO3)c1-c1ccc2c(c1)OCO2 | > 100 µM | > 100 µM | > 100 µM | – | > 100 µM | > 100 µM | > 100 µM | > 100 µM | > 100 µM
